The target of the experiment is CDK7/CycH/MNAT1 (Homo sapiens (Human), UniProt P50613). The experiment in a line: Biochemical Assay for CDK7 (TR-FRET kinase assay). The settings on record: 60 min pre-incubation with kinase, 1 mM ATP; for inhibition at 10 µM: 10 μM compound. In outline: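 TR-FRET with 5 nM CDK7/CycH/MNAT1, compound pre-incubated 60 min at room temperature, then 100 nM ULight-MBP and 1 mM ATP for 60 min; stopped with EDTA, Eu anti-phospho-MBP read at 665/615 nm. 1% DMSO; IC50 from sigmoidal fit. Time-dependence tested with 20, 60, 180 min pre-incubation.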

Inhibition and IC50 data for ten compounds are collected here from patent US11174232B2, “Substituted heterocyclyl derivatives as CDK inhibitors” (Aurigene Discovery Technologies Limited, priority 2015, dated 2021).

Molecules are shown by their SMILES.

CDK7/CycH/MNAT1, sequence (P50613 whole entry): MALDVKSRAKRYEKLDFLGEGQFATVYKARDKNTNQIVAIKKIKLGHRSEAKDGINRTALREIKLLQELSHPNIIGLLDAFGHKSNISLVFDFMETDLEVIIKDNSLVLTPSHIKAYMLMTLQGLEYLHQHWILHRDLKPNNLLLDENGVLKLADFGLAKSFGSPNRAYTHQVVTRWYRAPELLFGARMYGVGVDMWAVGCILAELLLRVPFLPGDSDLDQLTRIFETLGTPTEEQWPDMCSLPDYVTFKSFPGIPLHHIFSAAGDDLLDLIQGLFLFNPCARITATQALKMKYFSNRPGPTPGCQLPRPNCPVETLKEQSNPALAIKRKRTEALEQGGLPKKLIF
CDK7/CycH/MNAT1, sequence (P51946 whole entry partner): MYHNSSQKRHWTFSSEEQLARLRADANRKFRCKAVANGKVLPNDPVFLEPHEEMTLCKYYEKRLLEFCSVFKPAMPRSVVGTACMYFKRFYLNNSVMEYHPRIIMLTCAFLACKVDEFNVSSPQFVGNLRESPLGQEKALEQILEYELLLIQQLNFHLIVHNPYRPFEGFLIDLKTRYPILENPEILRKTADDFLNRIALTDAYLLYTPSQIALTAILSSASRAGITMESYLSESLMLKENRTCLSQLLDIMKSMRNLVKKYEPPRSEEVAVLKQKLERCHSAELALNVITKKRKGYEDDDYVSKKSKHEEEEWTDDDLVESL
CDK7/CycH/MNAT1, sequence (P51948 whole entry partner): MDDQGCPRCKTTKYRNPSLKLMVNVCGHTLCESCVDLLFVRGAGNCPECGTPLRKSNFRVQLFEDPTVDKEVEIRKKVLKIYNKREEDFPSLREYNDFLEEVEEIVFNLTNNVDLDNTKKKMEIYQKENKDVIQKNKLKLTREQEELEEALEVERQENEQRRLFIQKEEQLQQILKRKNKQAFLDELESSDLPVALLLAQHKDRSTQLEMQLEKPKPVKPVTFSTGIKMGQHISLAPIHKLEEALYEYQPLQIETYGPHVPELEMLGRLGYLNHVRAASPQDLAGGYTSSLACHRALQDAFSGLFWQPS

As usually defined, the inhibition is the percentage by which the read-out fell short of the control. A lower inhibition goes with a weak effect. Broadly, the IC50 is the concentration needed to halve the response being measured. Compound `CC(C(=O)Nc1cc(C2CC2)[nH]n1)c1cccc(-c2ccc(NC(=O)/C=C/CN3CCCC(F)C3)nc2)c1` (centres unmarked) [Compound 57, (E)-N-(5-(3-(1-((5-cyclopropyl-1H-pyrazol-3-yl)amino)-1-oxopropan-2-yl)phenyl)pyridin-2-yl)-4-(3-fluoropiperidin-1-yl)but-2-enamide] gave an inhibition at 10 µM of 98% and an IC50 of less than 25 nM.

Regarding `CC(C(=O)Nc1cc(C2CC2)[nH]n1)c1cccc(-c2ccc(NC(=O)/C=C/CN3CCOCC3)c(F)n2)c1` (centres unmarked) [Compound 58, (E)-N-(6-(3-(1-((5-cyclopropyl-1H-pyrazol-3-yl)amino)-1-oxopropan-2-yl)phenyl)-2-fluoropyridin-3-yl)-4-morpholinobut-2-enamide], the inhibition at 10 µM turned out to be 90% and the IC50 was greater than 100 nM.

The compound `CC(C(=O)Nc1cc(C2CC2)[nH]n1)c1cccc(-c2ccc(NC(=O)/C=C/CN3CCOCC3)nc2F)c1` (centres unmarked) [Compound 59, (E)-N-(5-(3-(1-((5-cyclopropyl-1H-pyrazol-3-yl)amino)-1-oxopropan-2-yl)phenyl)-6-fluoropyridin-2-yl)-4-morpholinobut-2-enamide] had an inhibition at 10 µM of 99% and an IC50 of 25 to 100 nM.

As to `CC(C(=O)Nc1cc(C2CC2)[nH]n1)c1cccc(-c2cncc(NC(=O)/C=C/CN3CCOCC3)c2)c1` (centres unmarked) [Compound 60, (E)-N-(5-(3-(1-((5-cyclopropyl-1H-pyrazol-3-yl)amino)-1-oxopropan-2-yl)phenyl)pyridin-3-yl)-4-morpholinobut-2-enamide], the inhibition at 10 µM amounted to 99% and the 50% inhibitory concentration (IC50) is 25 to 100 nM.

Regarding `CC(C(=O)Nc1cc(C2CC2)[nH]n1)c1cccc(-c2cccc(NC(=O)/C=C/CN3CCOCC3)c2)c1` (centres unmarked) [Compound 61, (E)-N-(3′-(1-((5-cyclopropyl-1H-pyrazol-3-yl)amino)-1-oxopropan-2-yl)-[1,1′-biphenyl]-3-yl)-4-morpholinobut-2-enamide], the inhibition at 10 µM stood at 92% and the IC50 was greater than 100 nM.

In the case of `CON(C)C/C=C/C(=O)Nc1ccc(-c2cccc(C(C)C(=O)Nc3cc(C4CC4)[nH]n3)c2)cn1` (centres unmarked) [Compound 62, (E)-N-(5-(3-(1-((5-cyclopropyl-1H-pyrazol-3-yl)amino)-1-oxopropan-2-yl)phenyl)pyridin-2-yl)-4-(methoxy(methyl)amino)but-2-enamide], 10 µM produced 81% inhibition and the 50% inhibitory concentration (IC50) is greater than 100 nM.

The compound `CC(C(=O)Nc1cc(C2CC2)[nH]n1)c1cccc(-c2cnc(NC(=O)/C=C/CN3CCOCC3)c(F)c2)c1` (centres unmarked) [Compound 63, (E)-N-(5-(3-(1-((5-cyclopropyl-1H-pyrazol-3-yl)amino)-1-oxopropan-2-yl)phenyl)-3-fluoropyridin-2-yl)-4-morpholinobut-2-enamide] had an inhibition at 10 µM of 98% and a concentration for half-maximal inhibition (IC50) of 25 to 100 nM.

As to `CC(C(=O)Nc1cc(C2CC2)[nH]n1)c1cccc(-c2ccc(NC(=O)/C=C/CN3CCC(F)C3)c(F)n2)c1` (centres unmarked) [Compound 64, (E)-N-(6-(3-(1-((5-cyclopropyl-1H-pyrazol-3-yl)amino)-1-oxopropan-2-yl)phenyl)-2-fluoropyridin-3-yl)-4-(3-fluoropyrrolidin-1-yl)but-2-enamide], the inhibition at 10 µM amounted to 94% and the IC50 lay within 25 to 100 nM.

As for `C=CC(=O)Nc1ccc(-c2cccc(C(C)C(=O)Nc3cc(C4CC4)[nH]n3)c2)cc1OC` (centres unmarked) [Compound 65, N-(3′-(1-((5-cyclopropyl-1H-pyrazol-3-yl)amino)-1-oxopropan-2-yl)-3-methoxy-[1,1′-biphenyl]-4-yl)acrylamide], 10 µM produced 94% inhibition and the IC50 was greater than 100 nM.

`C=CC(=O)Nc1ccc(-c2cccc(C(C)C(=O)Nc3cc(C4CC4)[nH]n3)c2)cc1C` (centres unmarked) [Compound 66, N-(3′-(1-((5-cyclopropyl-1H-pyrazol-3-yl)amino)-1-oxopropan-2-yl)-3-methyl-[1,1′-biphenyl]-4-yl)acrylamide] came in with an inhibition at 10 µM of 88% and an IC50 greater than 100 nM.
